# Laboratory results from publication PMC7823661 (Viruses, 2020).
# Where a name gives a salt, the structure may show the parent alone.
# How the values were obtained:
# [1] = tested on: P. falciparum W2-chloroquine-resistant clone; conditions: in vitro, read-out: IC50 antiplasmodial; cited from earlier work
# [2] = tested on: baby hamster kidney cells (BHK-21); conditions: cited from earlier work
# [3] = tested on: Brazilian ZIKV strain (ZIKV-BR) in Vero cells; test: Plaque-forming reduction assay, supernatants of infected Vero cells; format: cell-based, Zika virus; conditions: MOI 1, 12 µM, 48 h; for inhibition at 12 µM: Zika virus, read-out: Vero cells PFR (%)
# [4] = tested on: ZIKV strain MR766 in Vero cells; parameters: method as in earlier work; conditions: cited from earlier work
# [5] = tested on: Brazilian ZIKV strain (ZIKV-BR) in cervical cells; format: cell-based, Zika virus; conditions: ZIKV-BR MOI 10, 12 µM, 48 h, versus 0.12% DMSO
# [6] = tested on: Brazilian ZIKV strain (ZIKV-BR) in cervical cells; test: Viral genome detection by RT-qPCR in supernatants of infected cervical cells; format: cell-based, Zika virus; conditions: supernatant of cervical cells; for ZIKV genome copies/mL: MOI 10, 12 µM, 48 h, control 6.7 ± 0.7 × 10^8; for reduction of viral load: 12 µM, compared to control
# [7] = Cytotoxicity assay (PrestoBlue) in mock-infected cervical cells; format: cell-based; conditions: human
# [8] = Cytotoxicity assay (PrestoBlue) in mock-infected Vero cells; format: cell-based; conditions: African green monkey, Vero cells (kidney)
# [9] = tested on: Brazilian ZIKV strain (ZIKV-BR) in cervical cells; test: Plaque-forming reduction assay, supernatants of infected cervical cells; format: cell-based, Zika virus; conditions: for inhibition at 6 µM / inhibition at 12 µM / EC50 / EC90 / inhibition at 25 µM: Zika virus; for inhibition at 6 µM: MOI 10, 6 µM; for inhibition at 6 µM / inhibition at 12 µM / inhibition at 25 µM: read-out: Cervical cells PFR (%); for EC50 / EC90: plaque-forming reduction, MOI 10, 48 h; for inhibition at 25 µM: MOI 10, 25 µM
# ZIKV-BR in Vero cells = conditions: read-out: concentration giving 50% of viral inhibition, MOI 0.1; cited from earlier work
# [10] = C33-A cervical epithelial cells (mock-infected), mock-infected cervical cells, 48 h, PrestoBlue, read-out: CC50 (μM)/48 h Cervical
Structure (SMILES),EC50 [9] [µM],EC90 [9] [µM],IC50 [1] [µM],CC50 [2] [µM],Vero cells PFR (%) [3] [%],inhibition at 12 µM [3] [%],EC50 [4] [µM],reduction of infected cells [5],ZIKV genome copies/mL [6],CC50 at 48 h [7] [µM],CC50 at 48 h [8] [µM],"Cervical cells IS (selectivity index, CC50/EC50) [9]","Cervical cells PFR (%) ([9]; MOI 10, 12 µM, 48 h)","inhibition at 6 µM ([9]; 48 h, 48 h) [%]","inhibition at 12 µM ([9]; 48 h, MOI 10, 12 µM, 48 h) [%]",reduction of viral load [6] [logs],"CC50 at 48 h [7, 10] [µM]","inhibition at 25 µM ([9]; 48 h, 48 h) [%]",EC50 (ZIKV-BR in Vero cells) [µM]
COc1ncnc(NS(=O)(=O)c2ccc(N)cc2)c1OC [sulfadoxine],–,–,> 15.5,–,–,–,–,–,–,–,–,–,–,–,–,–,–,–,–
"OC(c1cc(C(F)(F)F)nc2c(C(F)(F)F)cccc12)C1CCCCN1 [Mefloquine, (R)-(2.8-bis(trifluoromethyl)quinolin-4-yl)((S)-piperidin-2-yl)methanol hydrochloride, reference compound]",1.6 ± 0.1,3.5 ± 0.2,–,17.7 ± 3.5,100,100,3.9 ± 0.2,96.3% ± 3.7,2.0 ± 0.6 × 10^5 copies/mL,48.8 ± 0.2,26.7 ± 0.9,30.5,100,97.7 ± 0.3,100,–,–,–,–
"O=S(=O)(NCCCCNc1ccnc2cc(Cl)ccc12)c1ccccc1 [C-Sd4, N-(4-((7-chloroquinolin-4-yl)amino)butyl)-benzenesulfonamide]",5 ± 0.2,11.6 ± 0.1,–,–,–,100,–,–,5.1 ± 0.6 × 10^6 copies/mL,–,143 ± 1.3,–,–,56.6 ± 0.5,92.5 ± 0.2,2,> 200,100,–
CCN(CC)CCCC(C)Nc1ccnc2cc(Cl)ccc12 (centres unmarked) [chloroquine],–,–,–,–,–,–,–,–,–,–,–,–,–,–,–,–,–,–,12 ± 3.2

# More lines, main results first:
EC50 [9] [µM],EC90 [9] [µM],Structure (SMILES),IC50 [1] [µM],CC50 [2] [µM],Vero cells PFR (%) [3] [%],inhibition at 12 µM [3] [%],EC50 [4] [µM],reduction of infected cells [5],ZIKV genome copies/mL [6],CC50 at 48 h [7] [µM],CC50 at 48 h [8] [µM],"Cervical cells IS (selectivity index, CC50/EC50) [9]","Cervical cells PFR (%) ([9]; MOI 10, 12 µM, 48 h)","inhibition at 6 µM ([9]; 48 h, 48 h) [%]","inhibition at 12 µM ([9]; 48 h, MOI 10, 12 µM, 48 h) [%]",reduction of viral load [6] [logs],"CC50 at 48 h [7, 10] [µM]","inhibition at 25 µM ([9]; 48 h, 48 h) [%]",EC50 (ZIKV-BR in Vero cells) [µM]
3.6 ± 0.1,9.9 ± 0.2,"O=S(=O)(NCCCCNc1ccnc2cc(Cl)ccc12)c1ccc(F)cc1 [C-Sd7, N-(4-((7-chloroquinolin-4-yl)amino)butyl)-4-fluorobenzenesulfonamide]",–,–,–,100,–,–,2.6 ± 0.5 × 10^6 copies/mL,–,74.8 ± 1.2,–,–,75.1 ± 0.8,94.7 ± 0.7,2,> 200,100,–
3.6 ± 0.2,9.6 ± 0.6,"Cc1ccc(S(=O)(=O)NCCCNc2ccnc3cc(Cl)ccc23)cc1 [C-Sd1, N-(3-((7-chloroquinolin-4-yl)amino)propyl)-4-methyl-benzenesulfonamide]",–,–,–,100,–,–,1.0 ± 0.1 × 10^6 copies/mL,–,97 ± 0.5,–,–,75.3 ± 1.3,94.2 ± 0.5,2,130 ± 2,100,–
3.3 ± 0.2,7.8 ± 0.4,"O=S(=O)(NCCCNc1ccnc2cc(Cl)ccc12)c1ccc(Br)cc1 [C-Sd2, 4-Bromo-N-(3-((7-chloroquinolin-4-yl)amino)propyl)-benzenesulfonamide]",–,–,–,100,–,–,2.8 ± 0.4 × 10^6 copies/mL,–,56.7 ± 0.4,–,–,80.8 ± 0.8,93.7 ± 0.3,2,112 ± 1.8,100,–
3.2 ± 0.1,7.2 ± 0.1,"O=S(=O)(NCCCCNc1ccnc2cc(Cl)ccc12)c1ccc(Cl)cc1 [C-Sd5, 4-Chloro-N-(4-((7-chloroquinolin-4-yl)amino)butyl)-benzenesulfonamide]",–,–,–,100,–,–,2.0 ± 0.4 × 10^5 copies/mL,–,52.2 ± 3.2,> 62.5,–,82.3 ± 0.3,99.5 ± 0.2,3,> 200,100,–
3.7 ± 0.1,10.1 ± 0.1,"O=S(=O)(NCCCNc1ccnc2cc(Cl)ccc12)c1ccc(F)cc1 [C-Sd3, N-(3-((7-chloroquinolin-4-yl)amino)propyl)-4-fluorobenzenesulfonamide]",–,–,–,100,–,–,4.9 ± 0.3 × 10^6 copies/mL,–,141 ± 4.4,–,–,75 ± 1,94 ± 0.7,2,> 200,100,–
3.3 ± 0.1,7.4 ± 0.2,"O=S(=O)(NCCCCNc1ccnc2cc(Cl)ccc12)c1ccc(Br)cc1 [C-Sd6, 4-Bromo-N-(4-((7-chloroquinolin-4-yl)amino)butyl)-benzenesulfonamide]",–,–,–,100,–,over 88%,2.0 ± 0.2 × 10^5 copies/mL,–,43.2 ± 0.4,> 60.6,–,82 ± 0.5,94.8 ± 0.5,3,> 200,100,–
